Measured values as given in publication PMC5786306, “An AKAP-Lbc-RhoA interaction inhibitor promotes the translocation of aquaporin-2 to the plasma membrane of renal collecting duct principal cells” (PLoS ONE, 2018).
Values joined by “and” are separate entries in the source; they are usually repeats but may differ in a detail not shown here. Identical values can stand only once.

Key:
647-RhoA = target: T1, 647-RhoA (Homo sapiens, UniProt P61586); experiment: Microscale thermophoresis (MST) with 647-RhoA; assay type: binding
T1 construct: made in house
Description: (§1) The final concentration of GFP-AKAP-Lbc/DHPH was set to 150 nM, 95% LED and 80% MST laser power. […] The samples were incubated in the dark for 1 h incubation at room temperature, and measured with 30 sec laser-on and 5 sec laser-off time at a Monolith NT.115 device (NanoTemper). Measured fluorescence (F) was normalised (Fhot/Fcold = Fsteady state/Finitial state, Fig 3). Values of thermophoresis + T-jump were related to average of each measurement row (16 capillaries). Final values are given as ‰.
(§2) Fig 4 The Scaff10 derivative Scaff10-8 binds to RhoA but not to the DHPH domain of AKAP-Lbc. (A-D) Microscale thermophoresis (MST) takes advantage of the phenomenon of directed movement of particles in a temperature gradient. Binding events lead to changes in the hydration shell of biomolecules and a relative change of movement of the molecular complex along a temperature gradient. Using such changes, binding affinities can be determined. MST assays were carried out with (A) the recombinant DHPH domain of AKAP-Lbc fused with GFP and RhoA as a ligand and (B) fluorescent 647-RhoA and the His-tagged AKAP-Lbc/DHPH domain as a ligand. (C) MST assays for the analysis of the binding of Scaff10-8 to 647-RhoA. Upper panels: The concentration of fluorescent 647-RhoA remained constant and Scaff10-8 (left) and Scaff10-7 as a negative control (right) were titrated in increasing concentrations. Lower panels: Values of fluorescence corresponding to upper panels. (D) MST assay showing no binding of Scaff10-8 or Scaff10-7 to GFP-DHPH. Upper panels: The concentration of fluorescent GFP-AKAP-Lbc/DHPH remained constant and Scaff10-8 (left) and Scaff10-7 (right) were titrated in increasing concentrations. Lower panels: Values of fluorescence corresponding to upper panels. […] F norm = normalized fluorescence (fluorescence steady state/fluorescence initial state) indicated in ‰. n = 3–5. Mean ± SEM. […] The ligand protein named in each panel heading is used as the substance label, and it is uncertain whether these count as substances.

GFP-AKAP-Lbc/DHPH = target: T2, GFP-AKAP-Lbc/DHPH (Homo sapiens, UniProt Q12802); experiment: Microscale thermophoresis (MST) with GFP-AKAP-Lbc/DHPH; assay type: binding; conditions: result in words
T2 construct: His6-AKAP-Lbc/DHPH (aa 1972–2342 of human AKAP-Lbc; NP_006729.4); made in house; host or cells: HEK293-EBNA cells (transient transfection, pTT5)
T2 sequence (Q12802 1972-2342 isoform Q12802-2): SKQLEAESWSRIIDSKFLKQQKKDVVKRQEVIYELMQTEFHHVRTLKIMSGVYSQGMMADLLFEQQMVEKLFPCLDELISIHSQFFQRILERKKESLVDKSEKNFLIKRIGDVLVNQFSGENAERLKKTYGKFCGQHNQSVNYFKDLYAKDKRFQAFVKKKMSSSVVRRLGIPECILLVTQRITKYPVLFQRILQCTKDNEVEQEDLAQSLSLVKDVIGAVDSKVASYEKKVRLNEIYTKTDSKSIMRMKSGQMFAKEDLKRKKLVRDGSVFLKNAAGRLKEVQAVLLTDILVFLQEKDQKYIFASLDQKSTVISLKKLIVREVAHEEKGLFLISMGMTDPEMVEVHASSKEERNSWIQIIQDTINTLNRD
Description: as §1, §2

MCD4 cells = experiment: Uptake into cells by mass spectrometry; assay type: in vitro ADME, mouse; conditions: data not shown

T1 sequence (P61586 whole entry): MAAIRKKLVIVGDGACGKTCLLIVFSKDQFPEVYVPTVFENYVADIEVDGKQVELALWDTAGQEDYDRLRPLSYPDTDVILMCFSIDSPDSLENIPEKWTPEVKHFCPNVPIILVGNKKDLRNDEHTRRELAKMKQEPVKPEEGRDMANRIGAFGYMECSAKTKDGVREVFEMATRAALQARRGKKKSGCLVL

SMILES | Kd (647-RhoA; KD for binding to 647-RhoA, mean ± SEM, n = 3–5) | binding to GFP-AKAP-Lbc/DHPH (GFP-AKAP-Lbc/DHPH) | uptake into cells (MCD4 cells) | binding to 647-RhoA (647-RhoA; result in words)
COc1ccc(-c2coc3cc4oc(=O)c(CCC(=O)O)c(C)c4cc23)cc1 [Scaff10-8, 3-[3-(4-Methoxyphenyl)-5-methyl-7-oxo-furo[3,2-g]chromen-6-yl] propanoic acid] | 20 µM and 20.2 µM | no binding | confirmed the uptake | 
CCOC(=O)CCc1c(C)c2ccc(OCC(=O)c3ccc(OC)cc3)cc2oc1=O [Scaff10-7, Ethyl 3-[7-[2-(4-methoxyphenyl)-2-oxo-ethoxy]-4-methyl-2-oxo-chromen-3-yl]propanoate] |  | no binding |  | did not bind
